# Like-named read-outs stand apart in the source and are kept apart here.
# Experiments:
# NAMPT = target: T1, NAMPT (Homo sapiens, UniProt P43490); experiment: Biochemical inhibition assay: NAMPT enzymatic reaction, NMN quantified by mass spectrometry; details: read-out: Biochem IC50
# T1 construct: His tag; host or cells: E. coli
# In short: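 Inhibition of E. coli-expressed His-tagged human NAMPT, measured as NMN formation by mass spectrometry after a 30 min room-temperature reaction containing 1 μM NAM, 100 μM PRPP and 2.5 mM ATP.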
# A2780 cells = experiment: In-vitro cell proliferation assay (SRB), A2780 cells; format: cell-based; details: Homo sapiens, A2780, 72 h, A2780 cells, 72 hours, read-out: A2780 IC50
# In short: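 Growth inhibition was derived from background-corrected SRB absorbance (570 nm), measured on cells fixed in 6% TCA after three days of compound treatment under 5% CO2 at 37° C.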
# T1 sequence (P43490 whole entry): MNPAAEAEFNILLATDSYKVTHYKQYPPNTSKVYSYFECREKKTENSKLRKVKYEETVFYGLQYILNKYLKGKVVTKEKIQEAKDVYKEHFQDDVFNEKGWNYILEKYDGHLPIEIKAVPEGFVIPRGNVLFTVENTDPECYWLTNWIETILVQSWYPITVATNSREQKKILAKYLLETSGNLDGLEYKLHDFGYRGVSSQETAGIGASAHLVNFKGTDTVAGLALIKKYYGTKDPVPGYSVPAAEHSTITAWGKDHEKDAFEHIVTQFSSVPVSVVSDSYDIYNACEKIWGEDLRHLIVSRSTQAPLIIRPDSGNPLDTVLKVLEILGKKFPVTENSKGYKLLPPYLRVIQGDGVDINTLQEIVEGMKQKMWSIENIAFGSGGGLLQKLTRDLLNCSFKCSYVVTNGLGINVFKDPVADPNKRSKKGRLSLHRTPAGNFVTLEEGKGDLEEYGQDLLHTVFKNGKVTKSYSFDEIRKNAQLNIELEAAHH
Structure (SMILES),IC50 (NAMPT; NAMPT enzymatic reaction) [nM],IC50 (A2780 cells; SRB) [nM],IC50 (NAMPT; NAMPT enzymatic assay) [nM],IC50 (A2780 cells; SRB assay) [nM]
COc1ccc(S(=O)(=O)c2ccc(CNC(=O)c3cnc4nccn4c3)cc2)c(C)c1,2.4,67.9,,
"O=C(NCc1ccc(S(=O)(=O)c2cc(F)cc(C(F)(F)F)c2)cc1)c1cc2ccncc2s1 [N-[(4-{[3-fluoro-5-(trifluoromethyl)benzene]sulfonyl}phenyl)methyl]thieno[2,3-c]pyridine-2-carboxamide]",,3.1,10.2,
COc1ccc(OC)c(S(=O)(=O)c2ccc(CNC(=O)c3cc4ccncc4o3)cc2)c1,11.4,6.3,,
"O=C(NCc1ccc(S(=O)(=O)c2ccc3ncccc3c2)cc1)c1ccc2nccn2c1 [N-{[4-(quinoline-6-sulfonyl)phenyl]methyl}imidazo[1,2-a]pyridine-6-carboxamide]",,0.83,5.16,
"Cn1ncc2cccc(S(=O)(=O)c3ccc(CNC(=O)c4cc5ccncc5s4)cc3)c21 [N-{[4-(1-methyl-1H-indazole-7-sulfonyl)phenyl]methyl}thieno[2,3-c]pyridine-2-carboxamide]",,10.4,4.5,
CCCCOc1ccc(S(=O)(=O)c2ccc(CNC(=O)c3cc4ccncc4s3)cc2)cc1,3.6,10.3,,
"O=C(NCc1ccc(S(=O)(=O)c2ccccc2)cc1)c1nc2ccncc2s1 [N-{[4-(benzenesulfonyl)phenyl]methyl}-[1,3]thiazolo[5,4-c]pyridine-2-carboxamide]",,> 10000,220,
"COc1ccc(S(=O)(=O)c2ccc(CNC(=O)c3cc4ccncc4s3)cc2)cc1C [N-({4-[{4-methoxy-3-methylbenzene)sulfonyl]phenyl}methyl)thieno[2,3-c]pyridine-2-carboxamide]",3,,,2.4
"O=C(NCc1ccc(S(=O)(=O)c2cccc3c2OCO3)cc1)c1cc2ccncc2s1 [N-{[4-(2H-1,3-benzodioxole-4-sulfonyl)phenyl]methyl}thieno[2,3-c]pyridine-2-carboxamide]",,7.2,3.3,
"CCCOc1cccc(S(=O)(=O)c2ccc(CNC(=O)c3cnc4[nH]ncc4c3)cc2)c1 [N-({4-[(3-propoxybenzene)sulfonyl]phenyl}methyl)-1H-pyrazolo[3,4-b]pyridine-5-carboxamide]",30.4,41,,
"CN(C)c1cnc(S(=O)(=O)c2ccc(CNC(=O)c3ccc4nccn4c3)cc2)cn1 [N-({4-[5-(dimethylamino)pyrazine-2-sulfonyl]phenyl}methyl)imidazo[1,2-a]pyridine-6-carboxamide]",,3.6,16,
"Cn1ncc2cc(S(=O)(=O)c3ccc(CNC(=O)c4ccc5nccn5c4)cc3)ccc21 [N-{[4-(1-methyl-1H-indazole-5-sulfonyl)phenyl]methyl}imidazo[1,2-a]pyridine-6-carboxamide]",,1.6,4,
"O=C(NCc1ccc(S(=O)(=O)c2cccc3c2OCC3)cc1)c1cc2ccncc2s1 [N-{[4-(2,3-dihydro-1-benzofuran-7-sulfonyl)phenyl]methyl}thieno[2,3-c]pyridine-2-carboxamide]",,3,2.2,
"Cn1ncc2cc(S(=O)(=O)c3ccc(CNC(=O)c4cnc5nccn5c4)cc3)ccc21 [N-{[4-(1-methyl-1H-indazole-5-sulfonyl)phenyl]methyl}imidazo[1,2-a]pyrimidine-6-carboxamide]",,4.9,1.7,
"Cn1ncc2cccc(S(=O)(=O)c3ccc(CNC(=O)c4cnc5[nH]ncc5c4)cc3)c21 [N-{[4-(1-methyl-1H-indazole-7-sulfonyl)phenyl]methyl}-1H-pyrazolo[3,4-b]pyridine-5-carboxamide]",,86.9,91.8,
"CCN(C)c1ncc(S(=O)(=O)c2ccc(CNC(=O)c3cnc4[nH]ncc4c3)cc2)s1 [N-[(4-{2-[ethyl(methyl)amino]-1,3-thiazole-5-sulfonyl}phenyl)methyl]-1H-pyrazolo[3,4-b]pyridine-5-carboxamide]",,1.5,3.6,

Structure (SMILES),IC50 (NAMPT; NAMPT enzymatic reaction) [nM],IC50 (A2780 cells; SRB) [nM],IC50 (NAMPT; NAMPT enzymatic assay) [nM],IC50 (A2780 cells; SRB assay) [nM]
"Cc1ccc(C)c(S(=O)(=O)c2ccc(CNC(=O)c3cnc4[nH]ncc4c3)cc2)c1 [N-({4-[(2,5-dimethylbenzene)sulfonyl]phenyl}methyl)-1H-pyrazolo[3,4-b]pyridine-5-carboxamide]",20.9,17.2,,
CCOc1ccc(Cl)cc1S(=O)(=O)c1ccc(CNC(=O)c2cnc3nccn3c2)cc1,1.9,3.3,,
COc1ccc(F)cc1NS(=O)(=O)c1ccc(CN/C(=N\C#N)Nc2ccncc2)cc1 [(E)-2-cyano-3-({4-[(5-fluoro-2-methoxyphenyl)sulfamoyl]phenyl}methyl)-1-(pyridin-4-yl)guanidine],1.1,3,,
"CN(C)c1ncc(S(=O)(=O)c2ccc(CNC(=O)c3cnc4[nH]ncc4c3)cc2)cn1 [N-({4-[2-(dimethylamino)pyrimidine-5-sulfonyl]phenyl}methyl)-1H-pyrazolo[3,4-b]pyridine-5-carboxamide]",,5.9,7.9,
O=C(NCc1ccc(S(=O)(=O)c2cc(F)cc(N3CCOCC3)c2)cc1)c1cc2cnccc2[nH]1,,0.8,4,
"Cc1cn(C)c(S(=O)(=O)c2ccc(CNC(=O)c3cc4ccncc4o3)cc2)n1 [N-{[4-(1,4-dimethyl-1H-imidazole-2-sulfonyl)phenyl]methyl}furo[2,3-c]pyridine-2-carboxamide]",,100 to 1000,60.7,
"COc1ccc(S(=O)(=O)c2ccc(CNC(=O)c3cnc4[nH]ncc4c3)cc2)c(C)c1 [N-({4-[(4-methoxy-2-methylbenzene)sulfonyl]phenyl}methyl)-1H-pyrazolo[3,4-b]pyridine-5-carboxamide]",29,55.5,,
"Cc1ccc(S(=O)(=O)c2ccc(CNC(=O)c3cc4ccncc4s3)cc2)cn1 [N-{[4-(6-methylpyridine-3-sulfonyl)phenyl]methyl}thieno[2,3-c]pyridine-2-carboxamide]",,6.3,22,
O=C(NCc1ccc(S(=O)(=O)c2cc(F)cc(Cl)c2)cc1)c1cc2ccncc2o1,17.8,3.1,,
Cc1ccc(S(=O)(=O)c2ccc(CNC(=O)c3ccc4nccn4c3)cc2)c(Cl)c1,1.1,0.9,,
"O=C(NCc1ccc(S(=O)(=O)Nc2ccccc2N2CCCCC2)cc1)c1cc2cnccc2[nH]1 [N-[(4-{[2-(piperidin-1-yl)phenyl]sulfamoyl}phenyl)methyl]-1H-pyrrolo[3,2-c]pyridine-2-carboxamide]",72,,,8
"O=C(NCc1ccc(S(=O)(=O)c2cncc(N3CCCC3)c2)cc1)c1cc2cnccc2[nH]1 [N-({4-[5-(pyrrolidin-1-yl)pyridine-3-sulfonyl]phenyl}methyl)-1H-pyrrolo[3,2-c]pyridine-2-carboxamide]",,2,13.9,
"CCc1ccccc1S(=O)(=O)c1ccc(CNC(=O)c2cnc3[nH]ncc3c2)cc1 [N-({4-[(2-ethylbenzene)sulfonyl]phenyl}methyl)-1H-pyrazolo[3,4-b]pyridine-5-carboxamide]",8.4,13,,
COCc1cccc(S(=O)(=O)c2ccc(CNC(=O)c3cc4ccncc4o3)cc2)c1,,13.4,18.5,
O=C(NCc1ccc(S(=O)(=O)c2ccc(F)c(F)c2)cc1)c1cnc2nccn2c1,4.1,36.3,,
CCCOc1cccc(S(=O)(=O)c2ccc(CNC(=O)c3cc4cnccc4[nH]3)cc2)c1,10.2,12.2,,
